Columns and labels:
Aedes aegypti Cayman = test: WHO paper contact assay, Aedes aegypti Cayman; type: in vivo; details: papers 0.75% permethrin, 0.05% deltamethrin, 4% DDT, 0.1% bendiocarb, 1.0% fenitrothion, 4% dieldrin
Method: (§1) Mosquito colonies utilized in the examples were generally maintained as described: The colony of Anopheles stephensi (Sind-Kasur Nijmegen strain) was maintained at the Radboud University Medical Center, Nijmegen, The Netherlands, by 30° C. and 70-80% humidity and on a 12/12 hour day/night cycle. The Anopheles gambiae strains Kisumu and Tiassalé and the Aedes aegypti strains New Orleans and Cayman were reared at the Liverpool Insect Testing Establishment, Liverpool, UK. Kisumu is an insecticide susceptible lab strain. New Orleans was originally colonized by the Centers for Disease Control and Prevention. The Tiassalé strain was colonized from Southern Cote D'Ivoire where resistance to all classes of insecticide is found and the Cayman strain was colonized from Grand Cayman, where Aedes aegypti are highly resistant to DDT and pyrethroid insecticides. Both resistant strains are routinely selected with insecticides to ensure the maintenance of resistance, 0.75% permethrin for Cayman and 0.05% deltamethrin for Tiassalé, and profiled for resistance to a range of insecticides, including 4% dieldrin, to which Tiassalé is resistant but Cayman is susceptible.
(§2) Without being bound by theory, isoxazolines occupy a binding site that is distinct from the targets of known modulators of ionotropic GABA receptors. In line with this notion, fluralaner and afoxolaner were fully active against the Anopheles gambiae Tiassalé strain that carries the resistance-to-dieldrin (rdl) mutation in the GABA receptor. In addition, they were equipotent against pyrethroid- and carbamate-resistant strains carrying mutations in the kdr sodium channel and acetylcholine esterase (Ace-1) genes respectively. […] The results are shown as percentage of survival (on over 100 mosquitoes for each case), the bold and underlined numbers indicate values that fall within the criteria for resistance.

Anopheles gambiae Kisumu = test: WHO paper contact assay, Anopheles gambiae Kisumu; type: in vivo; details: papers 0.75% permethrin, 0.05% deltamethrin, 4% DDT, 0.1% bendiocarb, 1.0% fenitrothion, 4% dieldrin
Method: as §1, §2

[1] = system: Anopheles gambiae Tiassale 13; test: WHO paper contact assay, Anopheles gambiae Tiassale; type: in vivo; details: papers 0.75% permethrin, 0.05% deltamethrin, 4% DDT, 0.1% bendiocarb, 1.0% fenitrothion, 4% dieldrin
Method: as §1, §2

[2] = system: Aedes aegypti New Orleans; test: WHO paper contact assay, Aedes aegypti New Orleans; type: in vivo; details: papers 0.75% permethrin, 0.05% deltamethrin, 4% DDT, 0.1% bendiocarb, 1.0% fenitrothion, 4% dieldrin
Method: as §1, §2

[3] = system: Anopheles gambiae (Tiassalé); test: Membrane feeding, Anopheles gambiae Tiassalé strain (rdl mutation); type: in vivo; details: Tiassale strain; membrane feeding
Method: as §1
Isoxazoline compounds fluralaner or afoxolaner were reconstituted in 50% human serum and 50% red blood cells and administered to adult Anopheles stephensi mosquitos via standard membrane feeding. Lethality was assessed 1, 2 or 8 days after exposure. FIG. 2A represents a plot of viable Anopheles stephensi versus fluralaner concentration at each day of assessment. FIG. 2B represents a plot of viable Anopheles stephensi versus afoxolaner concentration at each day of assessment. […] The IC50 values of each compound for Anopheles death were determined by logistic regression using a least squares method to find the best fit and are shown in Table 1. IC50 values were calculated by applying a four-parameter logistic regression model using a least-squares method to find the best fit using the Graphpad Prism 5.0 software package.
The membrane feeding experiment described was repeated using the insecticide dieldrin on two strains of Anopheles gambiae: Kisumu and Tiassale. The Tiassale strain has a mutation in the resistance to dieldrin (rdl) locus, which codes for γ-aminobutyric acid (GABA) receptor. The Tiassale strain was resistant to pyrethroids, carbamate, DDT and dieldrin (knockdown resistance (kdr), Ace and rdl mutations). The Kisumu strain was susceptible to killing by all tested insecticides. FIG. 3A represents a plot of percentage survival of Kisumu and Tiassale strains of Anopheles gambiae versus dieldrin concentration. FIG. 3B represents a plot of survival of the Kisumu and Tiassale strains at 10 μM dieldrin. […] Both figures indicate that the dose-response in systemic feed experiment performed here in allows for identification of a resistance profile.
The feed experiment in Anopheles gambiae was repeated using the isoxazoline compounds fluralaner and afoxolaner to determine if the rdl mutation confers resistance to the isoxazoline insecticides. Isoxazoline insecticides target Rdl, but in a location thought to be different from dieldrin. The mosquitos were fed fluralaner or afoxolaner at various concentrations and lethality was assessed after 24 hours. FIG. 4A represents a plot of percentage survival of Kisumu and Tiassale strains of Anopheles gambiae versus fluralaner concentration. FIG. 4B represents a plot of percentage survival of Kisumu and Tiassale strains of Anopheles gambiae versus afoxolaner concentration.

malaria transmission = details: cited from earlier work
in vitro [4] = details: human, hepatocytes
Method: (§3) In a further assay, isoxazolines (fluralaner and afoxolaner) and control compounds (7-Ethoxycoumarin and 7-Hydroxycoumarin [Sigma]) were dissolved in DMSO at 10 and 30 mM respectively, then diluted first 20-fold with 45% methanol in water and a further 10-fold in pre-warmed Williams' Medium E. Cryopreserved human, dog and rat hepatocytes (In Vitro Technologies) were thawed, isolated by percoll gradient and suspended in Williams' Medium E. Cells were then dispensed into the wells of 96-well plates containing 10 μL of diluted compounds, to reach a final concentration of 0.5×10^6 cells/mL and 1 μM of isoxazolines or 3 μM of control. After an incubation at 37° C. of 0, 15, 30, 60 or 90 minutes, the reaction was stopped with acetonitrile. The samples were then shaken for 10 minutes at 500 rpm and centrifuged at 3220 g for 20 minutes. Supernatants were transferred and stored at 4° C. until LC-MS-MS analysis.

in vitro [5] = details: hepatocytes
Method: as §3

in vitro [6] = details: hepatocytes; remark: listed apart in the source
Method: as §3

| Compound | percentage of survival (Aedes aegypti Cayman) [%] | percentage of survival (Anopheles gambiae Kisumu) [%] | percentage of survival [1] [%] | percentage of survival [2] [%] | other results |
| --- | --- | --- | --- | --- | --- |
| CC1(C)[C@H](C(=O)O[C@H](C#N)c2cccc(Oc3ccccc3)c2)[C@@H]1C=C(Br)Br [Deltamethrin] | 36 | 100 | 10 | 100 |  |
| ClC1=C(Cl)[C@]2(Cl)[C@@H]3[C@@H]4C[C@@H]([C@H]5O[C@@H]45)[C@@H]3[C@@]1(Cl)C2(Cl)Cl [Dieldrin] | 95 | 96 | 21 | 100 | resistance of strain to killing (in words) [3]: confers resistance to killing by dieldrin |
| ivermectin |  |  |  |  | estimated reduction in new malaria cases in children under 5 (malaria transmission; MDA studies): 16%; reduction in infectious Anopheles gambiae (malaria transmission; MDA studies): ~80%; estimated reduction in transmission potential (malaria transmission; co-treatment with artemether-lumefantrine, effect short-lived): 35% |
| CCOc1ccc2ccc(=O)oc2c1 [7-Ethoxycoumarin] |  |  |  |  | half-life (in vitro [4]): 20.1 min; hepatocyte CLint (in vitro [4]): 69.1 µL/min/1e6 cells; half-life (in vitro [5]; dog): 14 min; hepatocyte CLint (in vitro [5]; dog): 99.3 µL/min/1e6 cells; half-life (in vitro [6]; rat): 61.8 min; hepatocyte CLint (in vitro [6]; rat): 22.4 µL/min/1e6 cells |
| COP(=S)(OC)Oc1ccc([N+](=O)[O-])c(C)c1 [Fenitrothion] | 100 | 100 | 96 | 100 |  |
| CC1(C)C(C=C(Cl)Cl)C1C(=O)OCc1cccc(Oc2ccccc2)c1 (stereo not shown) [Permethrin] | 7 | 100 | 3 | 100 |  |
| O=c1ccc2ccc(O)cc2o1 [7-Hydroxycoumarin] |  |  |  |  | half-life (in vitro [4]): 14.7 min; hepatocyte CLint (in vitro [4]): 94.1 µL/min/1e6 cells; half-life (in vitro [5]): 20.4 min; hepatocyte CLint (in vitro [5]): 68.1 µL/min/1e6 cells; half-life (in vitro [6]): 4.8 min; hepatocyte CLint (in vitro [6]): 290 µL/min/1e6 cells |
| CNC(=O)Oc1cccc2c1OC(C)(C)O2 [Bendiocarb] | 20 | 100 | 11 | 27 |  |
| Clc1ccc(C(c2ccc(Cl)cc2)C(Cl)(Cl)Cl)cc1 [DDT] | 0 | 100 | 3 | 100 |  |

Source: patent US20200061026A1, “METHODS AND COMPOSITIONS FOR PREVENTING VECTOR-BORNE DISEASE TRANSMISSION” (The Scripps Research Institute, priority 2016, published 2020)
